# Laboratory results taken from paper PMC4718804 (eLife, 2015).
# Like-named read-outs stand apart in the source and are kept apart here.
# What was measured:
# NPC1 = NPC1 (Cricetulus griseus, UniProt Q9JLG3); assay type: binding, hamster
# [1] = tested on: transfer of LDL-derived cholesterol from lysosomes to ER in CHO-7 cells; assay type: cell-based, hamster
# [2] = tested on: SREBP-2 cleavage in CHO-7 cells; assay type: cell-based, hamster
# purified NPC1 = purified NPC1 (Homo sapiens, UniProt O15118); assay type: binding
# wild-type human NPC1 = wild-type human NPC1 (Homo sapiens, UniProt O15118); assay type: binding
# [3] = tested on: lysosomal degradation of 125I-LDL in CHO-7 cells; assay type: cell-based, hamster
# NPC1L1 = NPC1L1 (Homo sapiens, UniProt Q9UHC9); assay type: binding
# Ebola virus [4] = details: cited from earlier work
# Ebola virus [5] = assay type: cell-based
# [6] = tested on: TR-4139 cells (CHO-7 cells stably expressing excess human NPC1); assay type: cell-based, hamster
# ER membranes = assay type: biochemical
# [7] = tested on: cholesterol egress from lysosomes; details: cited from earlier work
# [8] = tested on: cholesterol esterification stimulated by 25-hydroxycholesterol; assay type: cell-based
# NTD of recombinant NPC1 = details: cited from earlier work
# [9] = read-out: Inhibitory constant (Ki): concentration inhibiting incorporation of [14C]oleate into cholesteryl [14C]oleate by 50%
# [10] = read-out: Ki for inhibition of esterification of LDL-derived cholesterol
# Chain of NPC1 (Q9JLG3 23-1277 limits assumed): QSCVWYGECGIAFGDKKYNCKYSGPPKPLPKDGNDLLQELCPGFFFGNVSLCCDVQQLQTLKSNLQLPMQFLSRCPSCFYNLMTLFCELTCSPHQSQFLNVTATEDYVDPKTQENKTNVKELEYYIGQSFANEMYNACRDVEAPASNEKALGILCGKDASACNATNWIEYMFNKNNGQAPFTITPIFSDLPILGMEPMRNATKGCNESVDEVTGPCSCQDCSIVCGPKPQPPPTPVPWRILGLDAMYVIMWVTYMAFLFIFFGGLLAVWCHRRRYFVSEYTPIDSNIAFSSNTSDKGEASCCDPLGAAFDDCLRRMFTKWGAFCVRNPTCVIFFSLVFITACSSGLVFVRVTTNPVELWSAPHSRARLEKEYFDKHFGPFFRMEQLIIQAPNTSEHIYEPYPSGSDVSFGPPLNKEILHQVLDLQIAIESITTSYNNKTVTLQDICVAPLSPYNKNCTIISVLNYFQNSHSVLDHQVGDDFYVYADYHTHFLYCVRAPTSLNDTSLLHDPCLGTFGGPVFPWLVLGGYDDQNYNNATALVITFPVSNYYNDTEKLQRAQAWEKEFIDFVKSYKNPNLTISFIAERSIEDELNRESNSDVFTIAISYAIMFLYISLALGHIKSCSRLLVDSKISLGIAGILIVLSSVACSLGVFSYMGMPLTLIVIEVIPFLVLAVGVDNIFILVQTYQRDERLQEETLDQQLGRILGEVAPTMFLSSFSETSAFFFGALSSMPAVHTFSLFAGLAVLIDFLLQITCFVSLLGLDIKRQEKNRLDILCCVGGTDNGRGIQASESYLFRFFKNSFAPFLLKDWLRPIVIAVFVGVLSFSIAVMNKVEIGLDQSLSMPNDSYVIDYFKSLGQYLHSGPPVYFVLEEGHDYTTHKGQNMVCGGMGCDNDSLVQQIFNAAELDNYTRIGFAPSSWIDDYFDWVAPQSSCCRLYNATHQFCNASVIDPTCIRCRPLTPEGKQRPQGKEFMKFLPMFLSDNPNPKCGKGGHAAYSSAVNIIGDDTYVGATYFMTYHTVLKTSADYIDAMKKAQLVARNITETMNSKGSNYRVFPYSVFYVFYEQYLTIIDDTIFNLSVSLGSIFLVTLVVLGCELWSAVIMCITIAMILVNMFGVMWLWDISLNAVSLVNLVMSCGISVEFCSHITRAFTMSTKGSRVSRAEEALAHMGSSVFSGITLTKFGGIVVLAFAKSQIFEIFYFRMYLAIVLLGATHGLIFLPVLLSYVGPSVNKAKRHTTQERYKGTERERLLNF
# Chain of wild-type human NPC1 (O15118 23-1278): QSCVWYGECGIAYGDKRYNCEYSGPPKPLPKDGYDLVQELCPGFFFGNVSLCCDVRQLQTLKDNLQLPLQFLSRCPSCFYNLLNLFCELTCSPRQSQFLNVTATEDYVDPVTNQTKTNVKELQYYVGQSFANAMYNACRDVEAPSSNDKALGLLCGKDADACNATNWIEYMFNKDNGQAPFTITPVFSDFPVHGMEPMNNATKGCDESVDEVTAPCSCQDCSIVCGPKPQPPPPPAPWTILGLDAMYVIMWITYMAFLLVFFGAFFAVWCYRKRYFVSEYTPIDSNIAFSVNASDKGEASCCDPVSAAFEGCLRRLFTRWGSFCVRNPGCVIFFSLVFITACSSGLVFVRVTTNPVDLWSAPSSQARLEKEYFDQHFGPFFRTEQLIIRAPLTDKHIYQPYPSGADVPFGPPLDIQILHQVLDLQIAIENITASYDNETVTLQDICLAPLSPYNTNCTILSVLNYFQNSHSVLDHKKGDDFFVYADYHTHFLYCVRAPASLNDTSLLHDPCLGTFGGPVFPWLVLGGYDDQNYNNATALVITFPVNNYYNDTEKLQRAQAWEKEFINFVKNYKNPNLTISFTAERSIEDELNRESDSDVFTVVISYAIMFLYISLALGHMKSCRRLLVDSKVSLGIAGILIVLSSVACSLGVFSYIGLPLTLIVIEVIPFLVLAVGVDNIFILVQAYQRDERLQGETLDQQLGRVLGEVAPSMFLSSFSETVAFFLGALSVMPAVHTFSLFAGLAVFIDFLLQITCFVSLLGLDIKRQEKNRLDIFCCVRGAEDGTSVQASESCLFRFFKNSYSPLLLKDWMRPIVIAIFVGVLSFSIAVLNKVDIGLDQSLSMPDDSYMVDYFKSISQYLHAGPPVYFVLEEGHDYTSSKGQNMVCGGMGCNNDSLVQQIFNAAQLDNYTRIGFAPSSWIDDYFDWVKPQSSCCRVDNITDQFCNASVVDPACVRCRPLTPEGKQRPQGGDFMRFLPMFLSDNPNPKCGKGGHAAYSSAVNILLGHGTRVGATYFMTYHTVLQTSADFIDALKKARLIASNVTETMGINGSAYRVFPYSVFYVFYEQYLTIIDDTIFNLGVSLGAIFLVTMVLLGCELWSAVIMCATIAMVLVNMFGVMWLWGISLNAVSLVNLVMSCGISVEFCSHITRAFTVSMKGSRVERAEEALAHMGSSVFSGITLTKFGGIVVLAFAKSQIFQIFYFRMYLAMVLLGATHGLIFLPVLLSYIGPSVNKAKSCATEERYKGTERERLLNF
# Chain of purified NPC1 (O15118 23-1278): as above
# Chain of NPC1L1 (Q9UHC9 22-1359): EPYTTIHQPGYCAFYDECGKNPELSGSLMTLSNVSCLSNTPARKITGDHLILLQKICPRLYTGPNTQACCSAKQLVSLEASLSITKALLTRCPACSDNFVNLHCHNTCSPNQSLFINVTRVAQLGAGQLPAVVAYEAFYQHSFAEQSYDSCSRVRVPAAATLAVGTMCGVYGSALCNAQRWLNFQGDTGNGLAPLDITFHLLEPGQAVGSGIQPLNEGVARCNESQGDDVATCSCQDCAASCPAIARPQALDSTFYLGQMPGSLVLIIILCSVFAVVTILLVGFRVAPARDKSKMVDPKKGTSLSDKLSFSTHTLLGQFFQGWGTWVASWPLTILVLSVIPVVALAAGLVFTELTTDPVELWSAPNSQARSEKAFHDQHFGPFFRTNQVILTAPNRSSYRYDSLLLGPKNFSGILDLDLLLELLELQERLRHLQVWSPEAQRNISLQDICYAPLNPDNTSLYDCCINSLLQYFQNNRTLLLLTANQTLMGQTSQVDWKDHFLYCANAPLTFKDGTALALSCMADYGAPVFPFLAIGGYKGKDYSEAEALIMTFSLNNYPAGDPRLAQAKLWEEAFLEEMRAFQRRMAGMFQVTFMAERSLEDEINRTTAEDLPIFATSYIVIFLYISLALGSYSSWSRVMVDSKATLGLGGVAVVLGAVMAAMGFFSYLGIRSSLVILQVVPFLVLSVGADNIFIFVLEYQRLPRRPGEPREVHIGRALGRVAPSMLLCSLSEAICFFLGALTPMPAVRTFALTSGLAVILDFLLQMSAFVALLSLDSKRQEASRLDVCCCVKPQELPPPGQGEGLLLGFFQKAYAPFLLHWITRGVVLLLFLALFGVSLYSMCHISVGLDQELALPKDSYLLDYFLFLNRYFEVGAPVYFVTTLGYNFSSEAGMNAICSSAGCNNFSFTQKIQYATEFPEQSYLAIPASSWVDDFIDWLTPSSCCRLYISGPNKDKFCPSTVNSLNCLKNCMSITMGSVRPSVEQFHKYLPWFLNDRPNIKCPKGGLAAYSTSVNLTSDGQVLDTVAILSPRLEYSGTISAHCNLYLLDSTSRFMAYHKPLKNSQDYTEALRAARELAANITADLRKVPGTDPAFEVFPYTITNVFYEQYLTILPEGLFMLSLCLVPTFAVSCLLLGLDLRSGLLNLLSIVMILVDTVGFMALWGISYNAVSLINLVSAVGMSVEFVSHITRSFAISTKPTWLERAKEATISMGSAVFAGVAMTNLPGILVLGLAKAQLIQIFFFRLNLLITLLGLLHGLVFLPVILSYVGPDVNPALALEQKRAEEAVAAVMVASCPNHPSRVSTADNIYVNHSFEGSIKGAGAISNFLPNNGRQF
smiles,measurement,setting,value
CCC(CC)CCOC1CCC2(C)C(=CCC3C4CCC(=O)C4(C)CCC32)C1 (stereo not drawn) [compound D],"competition of U-X crosslinking to NPC1, immunoprecipitation",NPC1,not inhibited
same,Ki,[1]; [9],4700 nM
C#CCOc1ccc(C(=O)c2ccc(C(=O)OCCN(CC)CCOC3CCC4(C)C(=CCC5C6CCC(=O)C6(C)CCC54)C3)cc2)cc1 (stereo not drawn) [U-X],effect on the FCS-induced reduction of nuclear SREBP-2,[2],blocked
same,crosslinking to purified NPC1,purified NPC1,unable to crosslink
same,fluorescent NPC1 after UV crosslinking of U-X,wild-type human NPC1,detected
same,crosslinking to NPC1,NPC1,crosslinks
same,effect on lysosomal exit of cholesterol (incorporation of [14C]oleate into cholesteryl [14C]oleate),[1],inhibited the lysosomal exit of cholesterol
same,Ki,[1]; [9],60 nM
same,effect on degradation of 125I-LDL (125I-monoiodotyrosine released into medium),[3],did not inhibit degradation
same,crosslinking to NPC1L1,NPC1L1,did not crosslink
"CCN(CC)CCOC1CCC2(C)C(=CCC3C4CCC(=O)C4(C)CCC32)C1 (stereo not drawn) [U18666A, 3-beta-[2-(diethylamino)ethoxy]androst-5-en-17-one, reference compound]",effect on the FCS-induced reduction of nuclear SREBP-2,[2],prevented this reduction
same,concentrations of U18666A required to inhibit Ebola virus infection,Ebola virus [4],3 to 12 µM
same,competition of U-X crosslinking to transfected wild-type NPC1,wild-type human NPC1,competed
same,fold higher concentration required for inhibition of Ebola than for inhibition of cholesterol export,Ebola virus [5],100 fold
same,rise of the threshold for U18666A inhibition by overexpression of NPC1,[6],more than 100 fold
same,Ki,[6]; [10],2700 nM
same,"competition of U-X crosslinking to NPC1, immunoprecipitation",NPC1,blocked
same,"competition of U-X crosslinking to the 190-kDa protein (NPC1), in-gel fluorescence",NPC1,disappeared
same,effect on cholesteryl [14C]oleate formation when cholesterol is added to ER membranes in vitro,ER membranes,does not inhibit
same,fold more potent than imipramine,[7],more than 100 fold
same,pKa,physchem,9.41
same,concentration at which transport of LDL-derived cholesterol from lysosomes to ER is inhibited (as low as),[1],0.03 µM
same,effect on lysosomal exit of cholesterol (incorporation of [14C]oleate into cholesteryl [14C]oleate),[1],inhibited the lysosomal exit of cholesterol
same,Ki,[1]; [9],30 nM
same,Ki,[1]; [10],20 nM
same,effect on cholesterol esterification stimulated by 25-hydroxycholesterol,[8],did not block
same,effect on degradation of 125I-LDL (125I-monoiodotyrosine released into medium),[3],did not inhibit degradation
same,effect on binding of [3H]25-hydroxycholesterol to the NTD of recombinant NPC1,NTD of recombinant NPC1,does not block binding
CCCN(CCOC1CCC2(C)C(=CCC3C4CCC(=O)C4(C)CCC32)C1)Cc1cn(-c2cccnc2)nn1 (stereo not drawn) [compound B],"competition of U-X crosslinking to NPC1, immunoprecipitation",NPC1,blocked
same,Ki,[1]; [9],10 nM
CCC(CC)CCOC1CCC2(C)C(=CCC3C2CCC2(C)C3CCC2N(C)C)C1 (stereo not drawn) [compound A],effect on the FCS-induced reduction of nuclear SREBP-2,[2],no activity
same,"competition of U-X crosslinking to NPC1, immunoprecipitation",NPC1,not inhibited
same,"competition of U-X crosslinking to the 190-kDa protein (NPC1), in-gel fluorescence",NPC1,not
same,pKa,physchem,10.2
same,fold less active than U18666A in the cholesterol esterification assay,[1],~100 fold
same,Ki,[1]; [9],4500 nM
CCCN(CCOC1CCC2(C)C(=CCC3C4CCC(=O)C4(C)CCC32)C1)Cc1cn(CCCCCCOC(=O)CCCCC2SCC3NC(=O)NC32)nn1 (stereo not drawn) [compound C],"competition of U-X crosslinking to NPC1, immunoprecipitation",NPC1,blocked
same,Ki,[1]; [9],20 nM
"CCN(CC)CCCC(C)Nc1ccnc2cc(Cl)ccc12 (stereo not drawn) [chloroquine, reference compound]",effect on release of LDL-derived cholesterol (cholesterol esterification),[1],blocked
same,effect on degradation of 125I-LDL (125I-monoiodotyrosine released into medium),[3],blocked the degradation
CCN(CC)CCOC1CCCCC1 [compound E],"competition of U-X crosslinking to NPC1, immunoprecipitation",NPC1,not inhibited
same,Ki,[1]; [9],> 10000 nM
